Data: ChEMBL document CHEMBL1201862, “PubChem BioAssay data set” (2004)
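A five-concentration, 48-hour dose response in 96-well plates underlies each endpoint, interpolated linearly between surrounding concentrations. Abbreviation: GI50, concentration required for 50% inhibition of growth.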 Activity calls are given as the source filed them. Rule as the data show it: active = GI50 up to about 1.1 µM and inactive = higher.

What was measured:
Experiment in all cases: DTP human tumour cell line panel, 48 h
[1] = test system: CAKI-1
[2] = test system: SF-539
[3] = test system: Hs-578T
[4] = test system: SNB-19
[5] = test system: SR
[6] = test system: DU-145
[7] = test system: A549
[8] = test system: HCT-15
[9] = test system: COLO 205
[10] = test system: TK-10
[11] = test system: NCI-H23
[12] = test system: HOP-62
[13] = test system: MDA-N
[14] = test system: RXF 393
[15] = test system: HL-60
[16] = test system: UO-31
[17] = test system: ACHN
[18] = test system: IGROV-1
[19] = test system: LOX IMVI
[20] = test system: HOP-92

Compound	GI50 [1]	GI50 [2]	GI50 [3]	GI50 [4]	GI50 [5]	GI50 [6]	GI50 [7]	GI50 [8]	GI50 [9]	GI50 [10]	GI50 [11]	GI50 [12]	GI50 [13]	GI50 [14]	GI50 [15]	GI50 [16]	GI50 [17]	GI50 [18]	GI50 [19]	GI50 [20]
CCCCC(/C=C\COC1CCCCO1)=C/C(=O)OCC (centres undefined)	> 100 µM (inactive)	14.3 µM (inactive)	83.9 µM (inactive)	98.2 µM (inactive)	32.6 µM (inactive)	> 100 µM (inactive)	56.6 µM (inactive)	> 100 µM	> 100 µM (inactive)	> 100 µM (inactive)	> 100 µM (inactive)	> 100 µM (inactive)	63.1 µM (inactive)	60.7 µM (inactive)	29.2 µM (inactive)	> 100 µM (inactive)	> 100 µM (inactive)	61.2 µM (inactive)	41.4 µM (inactive)	
COC(=O)NNC(=O)OC.COC(=O)Nc1ccccc1NC(=O)OC.COC(=O)Oc1nn(C(=O)OC)c(=O)c2ccccc12	> 100 µM (inactive)	> 100 µM (inactive)	> 100 µM (inactive)	> 100 µM (inactive)	> 100 µM (inactive)	> 100 µM (inactive)	> 100 µM (inactive)	> 100 µM	> 100 µM (inactive)	> 100 µM (inactive)	> 100 µM (inactive)	> 100 µM (inactive)	> 100 µM (inactive)	> 100 µM (inactive)	> 100 µM (inactive)	> 100 µM (inactive)	> 100 µM (inactive)	> 100 µM (inactive)	> 100 µM (inactive)	
O/N=C1/Nc2cc(Cl)ccc2C(=S)N2CSCC12 (centres undefined)	> 100 µM (inactive)		> 100 µM (inactive)	> 100 µM (inactive)	> 100 µM (inactive)	> 100 µM (inactive)	> 100 µM (inactive)	> 100 µM	> 100 µM (inactive)	> 100 µM (inactive)		> 100 µM (inactive)	> 100 µM (inactive)	> 100 µM (inactive)		> 100 µM (inactive)	> 100 µM (inactive)	> 100 µM (inactive)	> 100 µM (inactive)	
CN1C(=O)C2CCCC(=O)N2c2cccnc21 (centres undefined)	> 100 µM (inactive)	> 100 µM (inactive)	> 100 µM (inactive)	> 100 µM (inactive)	> 100 µM (inactive)	> 100 µM (inactive)	> 100 µM (inactive)	> 100 µM	> 100 µM (inactive)	> 100 µM (inactive)	> 100 µM (inactive)	> 100 µM (inactive)	> 100 µM (inactive)		> 100 µM (inactive)	74.1 µM (inactive)	> 100 µM (inactive)	> 100 µM (inactive)	> 100 µM (inactive)	
CO/N=C(\C(=O)Nc1cncs1)c1csc(N)n1	> 10 µM (inactive)	> 10 µM (inactive)	> 10 µM (inactive)	> 10 µM (inactive)	> 10 µM (inactive)	> 10 µM (inactive)	> 10 µM (inactive)	> 10 µM	> 10 µM (inactive)	> 10 µM (inactive)	> 10 µM (inactive)	> 10 µM (inactive)	> 10 µM (inactive)			> 10 µM (inactive)	> 10 µM (inactive)	> 10 µM (inactive)	> 10 µM (inactive)	> 10 µM (inactive)
CC(C)(C)OC(=O)N/C(C=O)=C\C1CCCCC1	20.4 µM (inactive)	28.4 µM (inactive)	27.3 µM (inactive)	25.1 µM (inactive)	17.3 µM (inactive)	29 µM (inactive)	> 100 µM (inactive)	18.8 µM	19.2 µM (inactive)	17.7 µM (inactive)	23.7 µM (inactive)	21 µM (inactive)	18.5 µM (inactive)	23.4 µM (inactive)	25.4 µM (inactive)	16.5 µM (inactive)	29.3 µM (inactive)	20.7 µM (inactive)	14.3 µM (inactive)	
